Earlier results, collected in US20050272698A1, “Liquid stable composition of oxazaphosphorine with mesna” (priority 2002, published 2005).

Compound | solubility in water
O=P1(NCCCl)OCCCN1CCCl (centres unmarked) [Ifosfamide, 3-(2-chloroethyl)-2-[(2-chloroethyl)amino]tetrahydro-2H-1,3,2-oxazaphosphorin-2-oxide] | freely soluble in water
O=S(=O)([O-])CCS.[Na+] [Mesna, sodium-2-mercaptoethanesulphonate] | highly water soluble
